In PubChem BioAssay (NCI):
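Assay format: 96-well plates, 48-hour exposure. GI50 = concentration required for 50% inhibition of growth. TGI denotes the concentration required for complete inhibition of growth.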

Columns and labels:
Assay in all cases: NCI-60 cell line screen, 48 h
[1] = system: U251 CNS
[2] = system: SK-MEL-28 melanoma
[3] = system: HS 578T breast
[4] = system: MCF7 breast
[5] = system: CCRF-CEM leukemia
[6] = system: A549 NSCLC
[7] = system: RXF 393 renal
[8] = system: T-47D breast
[9] = system: M14 melanoma
[10] = system: MDA-N

## C1=N[C@]23C(=N[C@H](N=C2NCc2ccco2)[C@]24N=CNC2=N[C@H]3N=C4NCc2ccco2)N1
[1]
  GI50: > 100 µM
  TGI: > 100 µM
[2]
  GI50: > 100 µM
  TGI: > 100 µM
[3]
  GI50: 39.1 µM
  TGI: > 100 µM
[4]
  GI50: > 100 µM
  TGI: > 100 µM
[5]
  GI50: > 100 µM
  TGI: > 100 µM
[6]
  GI50: > 100 µM
  TGI: > 100 µM
[7]
  GI50: > 100 µM
  TGI: > 100 µM
[8]
  GI50: > 100 µM
  TGI: > 100 µM
[9]
  GI50: > 100 µM
  TGI: > 100 µM

## O=C(Nc1ccccc1[N+](=O)[O-])/C(=N/Nc1cccc(Cl)c1)c1c(O)c2ccccc2oc1=O
[2]
  TGI: > 100 µM
[5]
  TGI: 87.5 µM
[6]
  TGI: > 100 µM
[7]
  TGI: > 100 µM
[9]
  TGI: > 100 µM

## C=CCn1c(-c2cc(C(C)(C)C)c(O)c(C(C)(C)C)c2)cs/c1=N\C(P(=O)(O)O)P(=O)(O)O
[1]
  TGI: > 100 µM
[2]
  TGI: > 100 µM
[3]
  TGI: > 100 µM
[4]
  TGI: > 100 µM
[6]
  TGI: > 100 µM
[8]
  TGI: > 100 µM
[9]
  TGI: > 100 µM

## O=C(NN1C(=O)C(Cl)C1c1cccc(O)c1)c1ccccc1O (centres undefined)
[1]
  TGI: > 100 µM
[2]
  TGI: > 100 µM
[5]
  TGI: > 100 µM
[6]
  TGI: > 100 µM
[7]
  TGI: > 100 µM
[9]
  TGI: > 100 µM

## O=C1c2ccccc2N=C(c2cc3c(cc2Cl)Sc2nccn2S3(=O)=O)OS(=O)(=O)N1c1ccccc1
[1]
  TGI: > 100 µM
[3]
  TGI: > 100 µM
[4]
  TGI: 81.5 µM
[5]
  TGI: 41.7 µM
[6]
  TGI: > 100 µM
[7]
  TGI: 84.7 µM
[8]
  TGI: > 100 µM
[9]
  TGI: 47.5 µM

## O=S(=O)(O)c1ccc2c(N=Nc3cccc4ccccc34)c(O)ccc2c1
[1]
  TGI: > 100 µM
[2]
  TGI: > 100 µM
[10]
  TGI: > 100 µM
[3]
  TGI: > 100 µM
[5]
  TGI: > 100 µM
[6]
  TGI: > 100 µM
[7]
  TGI: > 100 µM
[8]
  TGI: > 100 µM
[9]
  TGI: > 100 µM

## CCOC(=O)NN(C(=O)OCC)c1ccc(N=Nc2ccc(OC)cc2)n1C
[1]
  TGI: > 100 µM
[10]
  TGI: 40.7 µM
[3]
  TGI: > 100 µM
[4]
  TGI: 31.8 µM
[6]
  TGI: 63.5 µM
[7]
  TGI: > 100 µM
[8]
  TGI: 76.2 µM
[9]
  TGI: 50 µM

## CC1CC(=O)Nc2ccc(Cl)cc2N1C(=O)CN1CCC(CCCCN(C)C)CC1 (centres undefined)
[1]
  TGI: > 100 µM
[2]
  TGI: > 100 µM
[5]
  TGI: > 100 µM
[6]
  TGI: > 100 µM
[9]
  TGI: > 100 µM

## Cc1cc(C)cc(Nc2nnc3n2S(=O)(=O)c2cc(C)c(Cl)cc2S3)c1
[1]
  TGI: 22.9 µM
[2]
  TGI: > 100 µM
[3]
  TGI: 26.9 µM
[4]
  TGI: 36 µM
[5]
  TGI: > 100 µM
[6]
  TGI: 45.1 µM
[7]
  TGI: 17.2 µM
[8]
  TGI: > 100 µM
[9]
  TGI: 33.4 µM

## Clc1ccc(Nc2ncco2)cc1Cl
[1]
  TGI: > 10 µM
[2]
  TGI: > 10 µM
[10]
  TGI: > 10 µM
[3]
  TGI: > 10 µM
[4]
  TGI: > 10 µM
[5]
  TGI: > 10 µM
[6]
  TGI: > 10 µM
[8]
  TGI: > 10 µM
[9]
  TGI: > 10 µM

## CC(C)OP(=O)(OC(C)C)C(=NCCO)NNc1ccc([N+](=O)[O-])cc1
[1]
  TGI: > 100 µM
[2]
  TGI: > 100 µM
[5]
  TGI: > 100 µM
[6]
  TGI: > 100 µM
[9]
  TGI: > 100 µM
